We go through 2 molecules from paper PMC5931594, “Substrate-bound outward-open structure of a Na^+-coupled sialic acid symporter reveals a new Na^+ site” (Nature Communications, 2018).

For the experiment, the target named is T1, SiaT (Proteus mirabilis, UniProt B4EZY7).
T1 construct: full-length, C-terminal HRV 3C site-GFP-8xHis tag cleaved by 3C protease; reconstituted in proteoliposomes for uptake
Briefly: microscale thermophoresis, label-free. The experiment is classed as binding. The settings on record: PBS, 0.0174% DDM.

Where two headings read alike, the source gives them in different places.

T1 sequence (B4EZY7 whole entry): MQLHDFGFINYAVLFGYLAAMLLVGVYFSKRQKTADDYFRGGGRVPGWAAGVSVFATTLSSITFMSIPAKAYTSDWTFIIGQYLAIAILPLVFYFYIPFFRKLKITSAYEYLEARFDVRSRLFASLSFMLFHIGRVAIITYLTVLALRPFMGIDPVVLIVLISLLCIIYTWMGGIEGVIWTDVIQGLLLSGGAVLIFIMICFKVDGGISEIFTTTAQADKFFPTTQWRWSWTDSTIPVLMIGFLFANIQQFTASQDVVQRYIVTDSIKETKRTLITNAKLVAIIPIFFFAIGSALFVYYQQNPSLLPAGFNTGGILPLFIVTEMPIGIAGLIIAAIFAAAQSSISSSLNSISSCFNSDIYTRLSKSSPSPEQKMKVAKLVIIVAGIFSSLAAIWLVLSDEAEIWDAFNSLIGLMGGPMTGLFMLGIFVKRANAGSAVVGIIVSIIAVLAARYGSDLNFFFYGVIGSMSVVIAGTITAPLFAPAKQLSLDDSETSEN

`O=C(CO)N[C@H]1[C@H]([C@H](O)[C@H](O)CO)OC(O)(C(=O)O)C[C@@H]1O` (some centres unmarked) [N-glycolylneuraminic acid]: the Kd (read-out: Kd^Neu5Gc) was 85 ± 2 µM.
Take `O=C(O)C1(O)C[C@H](O)[C@@H](O)[C@H]([C@H](O)[C@H](O)CO)O1` (some centres unmarked) [ketodeoxynonulosonic acid]: the Kd is over 10000 µM.
